What was measured:
TR/CAR chimera = experiment: Cotransfection of TR/CAR chimera with T3RE reporter, effect of added ligands; format: cell-based, human; conditions: JEG3 cells, charcoal-treated serum
Excerpt: To study the function of the putative ligand binding domain of the orphan, a chimeric receptor consisting of the C-terminal D, E and F domains of CAR (i.e., approximately amino acids 76-172, 173-319, and 320-348 of the CAR sequence, respectively) fused to the N-terminal A/B and C domains of TRβ was generated (termed TR/CAR), along with a control hybrid with the A/B and C domains of TR and the D, E and F domain of the glucocorticoid receptor (TR/GR). Vectors expressing these chimeras or the intact TR were cotransfected into JEG3 cells (ATCC Accession No: HTB 36) with reporter plasmids containing T3REs (i.e., of sequence […]; SEQ ID NO: 3) or GREs (from the MMTV promoter as described in Chandler et al., Cell 33:489, 1989) upstream of a reporter gene whose expression could be assayed. Transfections were carried out in the presence of serum treated with activated charcoal to remove T3 as well as other low molecular weight hydrophobic compounds that could act as CAR ligands.

CAR = target: T1, CAR (Homo sapiens, UniProt Q14994); experiment: Activation of the RARβ element by CAR in cotransfections, effect of protein kinase A/C pathway treatments; format: cell-based; conditions: cotransfection
T1 construct: expressed in transfected cells
T1 sequence (Q14994 1-348 isoform Q14994-2): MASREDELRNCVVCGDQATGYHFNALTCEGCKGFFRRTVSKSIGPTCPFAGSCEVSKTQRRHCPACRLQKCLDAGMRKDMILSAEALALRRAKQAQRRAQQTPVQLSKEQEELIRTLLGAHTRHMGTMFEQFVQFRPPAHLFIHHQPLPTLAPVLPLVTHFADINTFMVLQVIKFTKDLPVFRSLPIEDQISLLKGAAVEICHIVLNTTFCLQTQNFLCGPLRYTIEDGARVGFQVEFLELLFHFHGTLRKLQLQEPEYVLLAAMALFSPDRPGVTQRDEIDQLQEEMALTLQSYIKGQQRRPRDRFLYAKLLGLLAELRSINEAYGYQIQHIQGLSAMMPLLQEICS
Excerpt: Based on the constitutive activity of the TR/CAR chimera and the similarity of the DNA binding domain of CAR to other members of the superfamily, a number of response elements were screened for activation by the intact orphan in standard cotransfections. […] However, CAR did transactivate two wild type elements, the RAREs from the RARβ gene and the alcohol dehydrogenase (ADH) gene (i.e., […]; SEQ ID NO: 5). RAREs which were not transactivated by CAR included a potent up mutant version of the rat growth hormone gene T3RE/RARE (i.e., of sequence […]; SEQ ID NO:6; in tandem copies with the second copy inverted; described in Brent et al., Mol. Endocrinol. 3:1996, 1989) and the wild type version of the laminin T3RE/RARE (i.e., of sequence […]; SEQ ID NO: 8).
The activation of the RARβ element by CAR is not affected by several treatments that activate or inactivate signal transduction pathways mediated by protein kinases A or C. Thus, CAR activation was not altered by addition of dibutyryl cyclic AMP, by short or long term treatments with phorbol esters, or by cotransfections with vectors expressing the specific protein kinase A inhibitor peptide.

βRARE = experiment: Transactivation of βRARE-TK luciferase reporter in cotransfected HepG2 cells; format: cell-based, human; conditions: various cell types and conditions, no added ligand
Excerpt: To determine whether mCAR1 transactivated the βRARE in the absence of retinoids or any other exogenously added ligands, this construct was cotransfected with a luciferase reporter plasmid in which 3 copies of the βRARE were inserted upstream of the TK promoter. To carry out these experiments, HepG2 cells were maintained and transfected using calcium phosphate or DEAE dextran (Ausubel et al., Current Protocols in Molecular Biology, Greene Pub. Assoc.: New York, 1997). mCAR1 and mCAR2 expression vectors were generated by inserting appropriate fragments into the vector CDM8 (Seed, Nature 329:840-842, 1987), as previously described for hCAR. The luciferase reporter plasmid (Gulick et al., Proc. Natl. Acad. Sci. USA 91:11012-11016, 1994) contained three copies of the βRARE upstream of the TK promoter. The reporter plasmids with wild type and mutant versions of the RARβ2 promoter have been described (Moghal et al., Mol. Cell. Biol. 15:3945-3959, 1995). […]
For the TK reporter, pairs of 30 mm dishes were each transfected with 2 μg of reporter and pTKGH, and a total of 2 μg of mammalian expression vector. […] Transfections were carried out in media containing 10% charcoal stripped serum, and luciferase activity was determined using the Promega luciferase assay system as described by the manufacturer. […]

mCAR2 + RXR = mCAR2 + RXR (Mus musculus, UniProt O35627-2;P19793 O35627-2:1-286,P19793:1-462); experiment: EMSA; with RXR
Chain of mCAR2 + RXR (P19793 whole entry, one chain of several): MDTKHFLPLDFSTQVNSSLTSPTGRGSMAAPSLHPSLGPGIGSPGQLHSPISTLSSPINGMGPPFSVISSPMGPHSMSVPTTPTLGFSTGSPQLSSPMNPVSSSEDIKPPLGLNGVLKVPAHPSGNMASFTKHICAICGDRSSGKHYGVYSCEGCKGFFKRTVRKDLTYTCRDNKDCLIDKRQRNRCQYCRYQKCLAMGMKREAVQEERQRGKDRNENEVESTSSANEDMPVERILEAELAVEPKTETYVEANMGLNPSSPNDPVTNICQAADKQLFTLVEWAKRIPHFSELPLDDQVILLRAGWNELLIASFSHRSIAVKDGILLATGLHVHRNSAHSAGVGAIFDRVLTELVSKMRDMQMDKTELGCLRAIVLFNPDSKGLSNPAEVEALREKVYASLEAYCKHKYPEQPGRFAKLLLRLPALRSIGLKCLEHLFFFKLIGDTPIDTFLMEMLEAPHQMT
Excerpt: (§1) FIG. 7 is a photograph showing DNA binding by mCAR1 and mCAR2. mCAR1, mCAR2, RXR, and RAR proteins were expressed by in vitro translation and used for electrophoretic mobility shift assays with a βRARE probe as indicated. "S" indicates competition with the βRARE oligonucleotide, and "NS" competition with a nonspecific oligonucleotide. Equivalent amounts of mCAR1, mCAR2, and RAR were used in the binding reactions, as determined by ^35S-methionine labeling.
(§2) For DNA binding studies, mCAR1, mCAR2, RAR, and RXR proteins were expressed using coupled in vitro transcription and translation (Promega, Inc.). Standard conditions were used for electrophoretic mobility shift assays with the DR-5 response element from the RARβ2 promoter (the βRARE) as the probe, as described for hCAR (MB67). In these experiments, mCAR1/RXR heterodimers bound with high affinity to the RARE from the RARβ2 isoform promoter (Sucov et al., Proc. Natl. Acad. Sci. USA 87:5392–5396, 1990; de The et al., Nature 343:177–180, 1990) (FIG. 7). […] This lack of mCAR2 binding was consistent with the absence of the C-terminal portion of the ligand/dimerization domain, which is essential for heterodimerization.

mCAR1 + RXR = mCAR1 + RXR (Mus musculus, UniProt O35627;P19793 O35627:1-358,P19793:1-462); experiment: EMSA; high affinity; indistinguishable from RAR/RXR; conditions: chain copies: heterodimer (stated)
Chain of mCAR1 + RXR (P19793 whole entry, one chain of several): as above
Excerpt: as §1, §2

RAR + RXR = RAR + RXR (UniProt P10276;P19793 P10276:1-462,P19793:1-462); experiment: EMSA; conditions: chain copies: heterodimer (stated)
Chain of RAR + RXR (P10276 whole entry, chain 1 of 2): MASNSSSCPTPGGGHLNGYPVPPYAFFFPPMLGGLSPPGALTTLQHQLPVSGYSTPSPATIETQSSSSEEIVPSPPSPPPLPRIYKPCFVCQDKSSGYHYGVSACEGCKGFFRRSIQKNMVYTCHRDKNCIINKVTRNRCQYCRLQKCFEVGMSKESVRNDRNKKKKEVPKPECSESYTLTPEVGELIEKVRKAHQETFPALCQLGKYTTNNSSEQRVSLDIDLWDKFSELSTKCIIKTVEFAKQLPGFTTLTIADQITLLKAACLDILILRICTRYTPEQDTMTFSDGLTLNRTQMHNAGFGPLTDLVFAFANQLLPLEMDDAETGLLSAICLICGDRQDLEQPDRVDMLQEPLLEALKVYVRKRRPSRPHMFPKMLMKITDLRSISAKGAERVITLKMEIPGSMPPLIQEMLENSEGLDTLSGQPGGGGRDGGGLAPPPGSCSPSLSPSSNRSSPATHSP
Chain of RAR + RXR (P19793 whole entry, chain 2 of 2): as the sequence (P19793 whole entry, one chain of several) above
Excerpt: as §1, §2

[1] = target: T2, mCAR2 (splice variant lacking exon 8, 107 bp out-of-frame deletion; 6 new residues replace last 78 of mCAR1) (Mus musculus, UniProt O35627-2 O35627-2:1-286); experiment: EMSA; alone; conditions: tags: GenBank variant of mCAR1
T2 sequence: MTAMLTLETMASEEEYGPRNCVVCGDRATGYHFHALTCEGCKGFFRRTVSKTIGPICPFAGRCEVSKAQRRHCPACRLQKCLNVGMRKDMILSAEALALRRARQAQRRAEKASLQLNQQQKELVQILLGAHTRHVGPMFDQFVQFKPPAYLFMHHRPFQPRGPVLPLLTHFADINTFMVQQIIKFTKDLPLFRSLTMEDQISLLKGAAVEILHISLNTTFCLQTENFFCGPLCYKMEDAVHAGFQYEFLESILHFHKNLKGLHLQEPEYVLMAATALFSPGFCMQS
Excerpt: as §1, §2

In the case of `C[C@H](CCCC(C)(C)O)[C@H]1CC[C@H]2[C@@H]3CC=C4C[C@@H](O)CC[C@]4(C)[C@H]3CC[C@]12C` [25-hydroxy cholesterol], the “effect of added ligand on ligand-independent activation of T3RE reporter by TR/CAR chimera” value (“effect of added ligand” below) (TR/CAR chimera) is reported as “not altered”.

`CCCC(=O)Nc1ncnc2c1ncn2[C@@H]1O[C@@H]2COP(=O)(O)O[C@H]2[C@H]1OC(=O)CCC` [dibutyryl cyclic AMP] was tested, and the “effect on CAR activation of the RARβ element” value (CAR) was “not altered”.

With `CC1=C(/C=C/C(C)=C/C=C/C(C)=C/C(=O)O)C(C)(C)CCC1` [resinoid acid] the “effect of added ligand” value (TR/CAR chimera) was “not altered”.

With `C[C@]12CC[C@H]3[C@@H](CCC4=CC(=O)CC[C@@]43C)[C@@H]1CC[C@@H]2O` [testosterone] the “effect of added ligand” value (TR/CAR chimera) was “not altered”.

In the case of `C[C@]12CC[C@@H]3c4ccc(O)cc4CC[C@H]3[C@@H]1CC[C@@H]2O` [astraddle], the “effect of added ligand” value (TR/CAR chimera) is reported as “not altered”.

With `N[C@@H](Cc1cc(I)c(Oc2ccc(O)c(I)c2)c(I)c1)C(=O)O` [T3] the “effect of added ligand” value (TR/CAR chimera) was “not altered”.

B1: hCAR: human CAR receptor, 348 amino acids, SEQ ID NO:10 (protein, listed as Homo sapiens)
chain: T1 sequence (Q14994 1-348 isoform Q14994-2)
In the case of B1, the “transactivation of βRARE reporter” value (βRARE) is reported as 20-100 fold.

B2: betaRARE (RARbeta2 promoter DR-5) (dsDNA)
DNA 1: GGGTAGGGTTCACCGAAAGTTCACTCG
DNA 2: CGAGTGAACTTTCGGTGAACCCTACCC
B2: no binding (mCAR2 + RXR); binds (mCAR1 + RXR); binds (RAR + RXR). B2: no binding [1].
